Measurements reported in US4783461A, “3,6-disubstituted triazolo [3,4-A]phthalazine derivatives” (Gruppo Lepetit S.p.A., priority 1983, dated 1988).

Key:
[1] = molecular target: rat brain benzodiazepine receptors (3H-diazepam receptor); experiment: benzodiazepine-receptor binding test in vitro (inhibition of specific 3H-diazepam binding to rat brain membranes); settings: 3H-diazepam displacement, read-out: inhibition constant Ki (Ki = IC50/(1+C/KD)) for specific 3H-diazepam binding
From the text: The pharmacological properties of the compounds of the present invention were first investigated by submitting some representative members of this class to the benzodiazepine-receptor binding-test in vitro.

rats = experiment: conflict test in rats (punished responding, Vogel method as modified by Lippa); format: in vivo; settings: Rattus norvegicus, ip, 1 h, i.p., tested 60 minutes after administration, read-out: minimal effective dose (MED) significantly increasing the number of shocks versus controls
Experimental: The ability of the compounds of the present invention to increase punished responding in animals in a conflict situation, a procedure with high validity for predicting the anxiolytic effect of drugs, was assessed by testing these compounds in rats according to the method described by J. R. Vogel, B. Beer, E. D. Clody in Psychopharmacologia 21, 1-7 (1971) as modified by A. S. Lippa et al., in "Anxiolytics, Industrial Pharmacology",Vol. 3, Futura Publishing, 1979, pages 41-81. Briefly, rats are deprived for water for 48 hours and deprived of food for 20 hours prior to testing. Sixty minutes after administration of the test compound each rat is placed in an especially equipped cage. A glucose solution is available from a tap located in the rear of the cage. A constant pulsating shocking current is connected between the grid floor and the tap. Each rat is allowed 20 seconds of non-shocked drinking, then cycles of 5 seconds shock-off and 5 seconds shock-on began. During the shock-on period each lick on the tap is accompanied by shock. The number of shocks received by each animal is recorded and minimal effective doses are determined.

Row | Structure (SMILES) | Ki [1] [nM] | minimal effective dose (rats) [mg/kg]
1 | COCCOCc1nn2c(-c3ccc(OC)cc3)nnc2c2ccccc12 [Example 1, 6-[(2-Methoxyethoxy)methyl]-3-(4-methoxyphenyl)-1,2,4-triazolo[3,4-a]phthalazine] | 20 | 5
2 | COc1ccc(-c2nnc3c4ccccc4c(CN4CCCC4)nn23)cc1 [Example 2, 3-(4-Methoxyphenyl)-6-[(1-pyrrolidinyl)methyl]-1,2,4-triazolo[3,4-a]phthalazine] | 150 | –
